Assay results: article PMC6277767, “Broad and Region-Specific Impacts of the Synthetic Cannabinoid CP 55,940 in Adolescent and Adult Female Mouse Brains” (Frontiers in Molecular Neuroscience, 2018)

Tested on: CD1 female mouse brain lipidome
Assay: Brain-region lipid levels (HPLC/MS/MS lipidomics) 2 h after single i.p. 3 mg/kg CP 55,940 vs vehicle
Format: in vivo
Parameters: N-arachidonoyl phenylalanine level, Mean / N-stearoyl tryptophan level, Mean / N-stearoyl proline level, Mean / N-stearoyl leucine level, Mean / N-stearoyl phenylalanine level, Mean / N-stearoyl serine level, Mean / N-stearoyl methionine level, Mean: unit: moles per gram
Details: hippocampus, adult, 3 mg/kg CP 55,940
Procedure: The Bloomington Institutional Animal Care and Use Committee of Indiana University reviewed and approved the animal procedures. Female mice from the CD1 strain were utilized to match our study examining THC’s effects on the brain lipidome ([Leishman et al., 2018]). Mice were given a single i.p. injection of either 3 mg/kg CP or 1:1:18 cremophor:ethanol:saline vehicle (please refer to the section “3 mg/kg CP Is Relevant for Synthetic Cannabinoid Abuse and Has Stronger Effects on the Female Mouse Brain Lipidome During Adolescence” for a justification of dose and use of female mice). Three different age groups were given injections: PND 35 and PND 50 adolescents, and adult mice (PND 113). At least eight mice in each age group received CP and at least eight received vehicle. Matching the THC study time course ([Leishman et al., 2018]), mice were sacrificed via rapid decapitation 2 h after injection. Brains were immediately removed and flash-frozen in liquid nitrogen, and then stored at -80°C until dissections were performed. Brains were dissected on an ice-cold dissection plate into the following regions: STR, HIPP, CER, THAL, CTX, HYP, MID, and STEM. These abbreviations for these brain areas will be used exclusively when discussing the results generated by these specific dissections. Each dissected area was immediately placed in liquid nitrogen and then stored at -80°C until used for lipid extraction.
Tissue extracts were performed as previously described ([Bradshaw et al., 2006]; [Stuart et al., 2013]; [Raboune et al., 2014]; [Leishman et al., 2016a],[b], [2017], [2018]). First, samples were shock frozen in liquid nitrogen, weighed, and transferred to a centrifuge tube. The mass of the largest sample was multiplied by 50 to determine how many milliliters of HPLC-grade methanol (Fisher, Fair Lawn, NJ, United States) to add. Then, samples were spiked with 500 pmol deuterium-labeled NAGly (d8NAGly; Cayman Chemical, Ann Arbor, MI, United States). Samples were placed on ice in darkness for 2 h then individually homogenized and centrifuged at 19,000 × g for 20 min at 20°C. Supernatants were diluted with HPLC water (purified in house) to make a solution of 75% water, 25% supernatant. Lipids were partially purified on C18 solid phase extraction columns (Agilent, Palo Alto, CA, United States). A series of four elutions with 1.5 mL of 60%, 75%, 85%, and 100% methanol were collected ([Stuart et al., 2013]; [Leishman et al., 2016a],[b], [2018]).
As previously described ([Bradshaw et al., 2006]; [Tan et al., 2006]; [Smoum et al., 2010]; [Stuart et al., 2013]; [Tortoriello et al., 2013]; [Raboune et al., 2014]; [Leishman et al., 2016a],[b], [2017], [2018]), samples were analyzed using an Applied Biosystems API 3000 triple quadrupole mass spectrometer with electrospray ionization (Foster City, CA, United States). Using an Agilent XDB-C18 reversed phase analytical column and optimized mobile phase gradients, 20 μL from each elution were chromatographed. Two Shimadzu 10ADvp pumps (Columbia, MD, United States) provided the pressure for gradient elution. Mobile phase A: 20% methanol, 80% water (v/v) and 1 mM ammonium acetate (Sigma, St. Louis, MO, United States). Mobile phase B: 100% methanol, 1 mM ammonium acetate. Every method run began with 0% mobile phase B, reached 100% mobile phase B flowing at 0.2 mL/min, and gradually returned to 0% mobile phase B.
This screening library will be referred to as the lipidome when discussing data from this study. HPLC/MS/MS data were analyzed using Analyst software (Applied Biosystems) ([Bradshaw et al., 2006]; [Tan et al., 2006]; [Stuart et al., 2013]; [Tortoriello et al., 2013]; [Raboune et al., 2014]; [Leishman et al., 2016a],[b], [2017], [2018]). Chromatograms (Supplementary Figure 3) were generated by determining the retention time of analytes from the analytical column with a [M-1] or [M+1] parent peak and a fragmentation peak corresponding to the programmed values. […]

CCCCCCC(C)(C)c1ccc([C@@H]2C[C@H](O)CC[C@H]2CCCO)c(O)c1 [CP 55,940]
6-ketoPGF1α level, Mean: 2.42E-11 | 11-OH-THC level, Mean: BDL | 11-nor-9-carboxyTHC level, Mean: BDL | Arachidonic acid level, Mean: 1.89E-09 | Cannabidiol level, Mean: BDL | Linoleic acid level, Mean: 7.37E-10 | N- stearoyl valine level, Mean: 3.95E-14 | N-arachidonoyl GABA level, Mean: 2.86E-11 | N-arachidonoyl GABA: Direction (relative to Veh): ↓ | N-arachidonoyl GABA: Magnitude (x Veh level): 0.84 x Veh level | N-arachidonoyl alanine level, Mean: 3.66E-12 | N-arachidonoyl alanine: Direction (relative to Veh): ↓ | N-arachidonoyl alanine: Magnitude (x Veh level): 0.76 x Veh level | N-arachidonoyl dopamine level, Mean: BDL | N-arachidonoyl ethanolamine level, Mean: 3.15E-11 | N-arachidonoyl glycine level, Mean: 2.03E-12 | N-arachidonoyl glycine: Direction (relative to Veh): ↓ | N-arachidonoyl glycine: Magnitude (x Veh level): 0.72 x Veh level | N-arachidonoyl methionine level, Mean: PISSR | N-arachidonoyl phenylalanine level, Mean: 1.12E-13 | N-arachidonoyl phenylalanine: Direction (relative to Veh): ↓ | N-arachidonoyl phenylalanine: Magnitude (x Veh level): 0.60 x Veh level | N-arachidonoyl proline level, Mean: BDL | N-arachidonoyl serine level, Mean: PISSR | N-arachidonoyl taurine level, Mean: 2.3E-10 | N-arachidonoyl tryptophan level, Mean: BDL | N-arachidonoyl tyrosine level, Mean: PISSR | N-docosahexaenoyl GABA level, Mean: 7.15E-12 | N-docosahexaenoyl GABA: Direction (relative to Veh): ↓ | N-docosahexaenoyl GABA: Magnitude (x Veh level): 0.84 x Veh level | N-docosahexaenoyl alanine level, Mean: PISSR | N-docosahexaenoyl ethanolamine level, Mean: 2.18E-11 | N-docosahexaenoyl glycine level, Mean: 1.21E-13 | N-docosahexaenoyl leucine level, Mean: PISSR | N-docosahexaenoyl methionine level, Mean: BDL | N-docosahexaenoyl phenylalanine level, Mean: PISSR | N-docosahexaenoyl proline level, Mean: BDL | N-docosahexaenoyl serine level, Mean: PISSR | N-docosahexaenoyl tryptophan level, Mean: BDL | N-docosahexaenoyl tyrosine level, Mean: PISSR | N-docosahexaenoyl valine level, Mean: PISSR | N-linoleoyl GABA level, Mean: PISSR | N-linoleoyl alanine level, Mean: 3.37E-13 | N-linoleoyl ethanolamine level, Mean: 2.58E-11 | N-linoleoyl glycine level, Mean: 1.16E-13 | N-linoleoyl leucine level, Mean: PISSR | N-linoleoyl methionine level, Mean: BDL | N-linoleoyl phenylalanine level, Mean: PISSR | N-linoleoyl proline level, Mean: BDL | N-linoleoyl serine level, Mean: 7.17E-11 | N-linoleoyl tryptophan level, Mean: BDL | N-linoleoyl tyrosine level, Mean: PISSR | N-linoleoyl valine level, Mean: PISSR | N-nervonoyl valine level, Mean: BDL | N-oleoyl GABA level, Mean: 1.55E-11 | N-oleoyl GABA: Direction (relative to Veh): ↓ | N-oleoyl GABA: Magnitude (x Veh level): 0.88 x Veh level | N-oleoyl alanine level, Mean: 3.73E-12 | N-oleoyl dopamine level, Mean: BDL | N-oleoyl ethanolamine level, Mean: 1.06E-10 | N-oleoyl glycine level, Mean: 5.21E-13 | N-oleoyl leucine level, Mean: 1.44E-12 | N-oleoyl methionine level, Mean: PISSR | N-oleoyl phenylalanine level, Mean: 3.98E-13 | N-oleoyl phenylalanine: Direction (relative to Veh): ↓ | N-oleoyl phenylalanine: Magnitude (x Veh level): 0.70 x Veh level | N-oleoyl proline level, Mean: BDL | N-oleoyl serine level, Mean: 3.49E-10 | N-oleoyl tryptophan level, Mean: BDL | N-oleoyl tyrosine level, Mean: 4.1E-13 | N-oleoyl valine level, Mean: PISSR | N-palmitoyl GABA level, Mean: 2.14E-11 | N-palmitoyl alanine level, Mean: 3.64E-12 | N-palmitoyl ethanolamine level, Mean: 4.41E-11 | N-palmitoyl glycine level, Mean: 1.22E-12 | N-palmitoyl leucine level, Mean: 2.6E-12 | N-palmitoyl methionine level, Mean: 1.73E-12 | N-palmitoyl phenylalanine level, Mean: 4.39E-13 | N-palmitoyl proline level, Mean: BDL | N-palmitoyl serine level, Mean: 1.33E-11 | N-palmitoyl tryptophan level, Mean: BDL | N-palmitoyl tyrosine level, Mean: 9.98E-13 | N-palmitoyl valine level, Mean: 1.27E-13 | N-stearoyl GABA level, Mean: 1.57E-11 | N-stearoyl alanine level, Mean: 2.38E-12 | N-stearoyl ethanolamine level, Mean: 1.7E-11 | N-stearoyl glycine level, Mean: 2.12E-12 | N-stearoyl leucine level, Mean: 2.18E-12 | N-stearoyl phenylalanine level, Mean: 3.31E-13 | N-stearoyl proline level, Mean: BDL | N-stearoyl serine level, Mean: 2.78E-11 | N-stearoyl serine: Direction (relative to Veh): ↓ | N-stearoyl serine: Magnitude (x Veh level): 0.85 x Veh level | N-stearoyl tryptophan level, Mean: BDL | N-stearoyl tyrosine level, Mean: 1.97E-13 | Oleic acid level, Mean: 1.43E-09 | PGE2: Direction (relative to Veh): ↑ | PGE2: Magnitude (x Veh level): 1.18 x Veh level | PGE2 level, Mean: 3.37E-10 | PGF2α: Direction (relative to Veh): ↑ | PGF2α: Magnitude (x Veh level): 1.30 x Veh level | PhosphoLEA level, Mean: 1.8E-11
